Data set [1] relates to Molt-4 cells and Molt-4/HIV cells. The data set can be described thus: cells. The class given is cell-based. The following applies: for 50% Inhibitory Concentration (IC₅₀): giant cell formation inhibition, as indicated in Example 4. The method, then: After a test drug was dissolved in methanol medium for tissue culture was added to the solution to make a definite concentration. The concentration of methanol was finally adjusted to less than 2 %. HIV persistent injection Molt-4 cells (Molt-4/HIV cells) were precultured for 24 hours in the presence of the compound. The precultured Molt-4/HIV cells were mixed with HIV-non-infected Molt-4 cells, whereby the compound was prepared to have the same concentration as that of the preculture. The mixture was then cultured. Giant cell formation was compared between chemically intact control cells and the group to which the compound has been added 5 and 20 hours after mixing the culture to evaluate the effect of the chemical. The evaluation was made based on the method of Yamamoto et al. (Virology, 164, 542 - 546, 1988). The evaluation effect is shown in Table 1 in terms of fusion index.

In a further data set the test system is mice. The experiment in a line: Acute toxicity test, oral administration to mice. The format is in vivo. The settings on record: 4g/kg administered orally, 3 mice in each group. The source says: The compounds of the present invention have low toxicity.
Where [2] appears, read: 12.5 µg/ml, mixed culture 5 hours.
[3] abbreviates: 12.5 µg/ml, mixed culture 20 hours.
The mark [4] stands for this setting: 25 µg/ml, mixed culture 5 hours.
[5] abbreviates: 25 µg/ml, mixed culture 20 hours.
Setting [6] is: 50 µg/ml, mixed culture 5 hours.
Setting [7] is: 50 µg/ml, mixed culture 20 hours.
[8] abbreviates: 100 µg/ml, mixed culture 5 hours.
The mark [9] stands for this setting: 100 µg/ml, mixed culture 20 hours.
The mark [10] stands for this setting: 200 µg/ml, mixed culture 5 hours.
[11] abbreviates: 200 µg/ml, mixed culture 20 hours.
The mark [12] stands for this setting: Homo sapiens, MOLT-4, 5 h, read-out: Giant cell formation inhibitory rate (%).
[13] abbreviates: Homo sapiens, MOLT-4, 20 h, read-out: Giant cell formation inhibitory rate (%).
[14] abbreviates: Homo sapiens, MOLT-4, read-out: 50 % of inhibitory concentration (IC₅₀ value) of the giant cell formation inhibition.
[15] abbreviates: Homo sapiens, MOLT-4, read-out: 50% Inhibitory Concentration (IC₅₀).

Each structure is given as a SMILES string. In brackets after ≈: the same amount, converted by molar mass. Read-outs that look alike come from different tables or passages of the source.

As for `OC[C@@H]1[C@@H](O)[C@H](O)[C@@H](O)CN1CC=C(c1ccc(F)cc1)c1ccc(F)cc1` [Example 9, N-[3,3-Di(4-fluorophenyl)-2-propenyl]-1-deoxynojirimycin], in data set [1], the “50% Inhibitory Concentration (IC₅₀)” value was above 100 µg/mL.

For the compound `OC[C@@H]1[C@@H](O)[C@H](O)[C@@H](O)CN1CCCc1ccccc1` [Example 1, N-(3-phenylpropyl)-1-deoxynojirimycin], the Fusion index in data set [1] (setting [2]) was 0.11; in data set [1] (setting [3]), 0.34; in data set [1] (setting [4]), -0.07; in data set [1] (setting [5]) it was 0.18; in data set [1] (setting [6]), 0.19; in data set [1] (setting [7]), 0.13. In addition, the Fusion index in data set [1] (setting [8]) is 0; in data set [1] (setting [9]) it was 0.05; in data set [1] (setting [10]), 0.23; in data set [1] (setting [11]), 0.18. Further, in data set [1] (20 hours after mixing the culture), the “effect of inhibiting the formation of giant cells” value is given as “about 90%”. Also, the inhibition at 12.5 µg/mL worked out at 79.6% in data set [1] (setting [12]) and 82.1% in data set [1] (setting [13]). For the same compound, the inhibition at 25 µg/mL came to 100% in data set [1] (setting [12]) and 90.5% in data set [1] (setting [13]). The inhibition at 50 µg/mL in data set [1] (setting [12]) is 64.8%; in data set [1] (setting [13]), 93.2%. Also, the inhibition at 100 µg/mL amounted to 100% in data set [1] (setting [12]) and 97.4% in data set [1] (setting [13]). Also, the results for the inhibition at 200 µg/mL in data set [1] (setting [12]) and in data set [1] (setting [13]) were 57.4% and 90.5%, respectively. Besides, in data set [1] (setting [14]), the IC50 lay within 5 to 10 µg/mL (≈ 17.8 to 35.5 µM). In addition, the “microscopic observation of giant cell formation” value in data set [1] (compared to the control cells) is on record as “clearly inhibited the formation of giant cells”.

In the case of `OC[C@@H]1[C@@H](O)[C@H](O)[C@@H](O)CN1CCC=Cc1ccccc1F` [Example 14, N-[4-(2-Fluorophenyl)-3-butenyl]-1-deoxynojirimycin], the IC50 in data set [1] (setting [15]) lay in the range of 5 to 10 µg/mL (≈ 16.1 to 32.1 µM).

For `OC[C@@H]1[C@@H](O)[C@H](O)[C@@H](O)CN1CCCC(F)(F)F` [Example 15, N-(4,4,4-Trifluorobutyl)-1-deoxynojirimycin], in data set [1] (setting [15]), the IC50 is 5 to 10 µg/mL (≈ 18.3 to 36.6 µM).

In the case of `OC[C@@H]1[C@@H](O)[C@H](O)[C@@H](O)CN1CC=Cc1ccccc1Cl` [Example 7, N-[3-(2-Chlorophenyl)-2-propenyl]-1-deoxynojirimycin], the “50% Inhibitory Concentration (IC₅₀)” value in data set [1] was 60 µg/mL.

Consider `OC[C@@H]1[C@@H](O)[C@H](O)[C@@H](O)CN1CCCCc1ccccc1` [Example 5, N-(4-Phenylbutyl)-1-deoxynojirimycin], for which the IC50 in data set [1] (setting [15]) is 5 to 10 µg/mL (≈ 16.9 to 33.9 µM).

With `OC[C@@H]1[C@@H](O)[C@H](O)[C@@H](O)CN1CC=Cc1ccccc1F` [Example 13, N-[3-(2-Fluorophenyl)-2-propenyl]-1-deoxynojirimycin], in data set [1] (setting [15]), the IC50 was 2.5 to 5 µg/mL (≈ 8.41 to 16.8 µM).

As to `OC[C@@H]1[C@@H](O)[C@H](O)[C@@H](O)CN1CCCCC(F)(F)F` [Example 16, N-(5,5,5-Trifluoropentyl)-1-deoxynojirimycin], the IC50 in data set [1] (setting [15]) is 2.5 to 5 µg/mL (≈ 8.7 to 17.4 µM).

With `OC[C@@H]1[C@@H](O)[C@H](O)[C@@H](O)CN1CCOc1ccccc1` [Control, N-(2-Phenoxyethyl)-1-deoxynojirimycin, reference compound], the IC50 in data set [1] (setting [15]) is 20 to 40 µg/mL (≈ 70.6 to 141 µM).

Consider `OC[C@@H]1[C@@H](O)[C@H](O)[C@@H](O)CN1CC=Cc1cccc(Cl)c1` [Example 6, N-[3-(3-Chlorophenyl)-2-propenyl]-1-deoxynojirimycin], for which the “50% Inhibitory Concentration (IC₅₀)” value in data set [1] was 50 µg/mL.

Consider `OC[C@@H]1[C@@H](O)[C@H](O)[C@@H](O)CN1CC=Cc1ccccc1` [Example 2, N-(3-phenyl-2-propenyl)-1-deoxynojirimycin], for which the Fusion index is 0.14 in data set [1] (setting [2]); -0.03 in data set [1] (setting [3]); 0.17 in data set [1] (setting [4]); -0.08 in data set [1] (setting [5]); 0.06 in data set [1] (setting [6]); -0.07 in data set [1] (setting [7]). Besides, the Fusion index is recorded as -0.10 in data set [1] (setting [8]), 0.10 in data set [1] (setting [9]), -0.08 in data set [1] (setting [10]) and 0.10 in data set [1] (setting [11]). Moreover, the inhibition at 12.5 µg/mL in data set [1] (setting [12]) was found to be 74.1%; in data set [1] (setting [13]), 100%. The inhibition at 25 µg/mL in data set [1] (setting [12]) worked out at 68.5%; in data set [1] (setting [13]) it was 100%. The inhibition at 50 µg/mL in data set [1] (setting [12]) turned out to be 88.9%; in data set [1] (setting [13]) it was 100%. The figures for the inhibition at 100 µg/mL in data set [1] (setting [12]) and in data set [1] (setting [13]) were 100% and 94.7%, respectively. Moreover, the inhibition at 200 µg/mL in data set [1] (setting [12]) was 100%; in data set [1] (setting [13]) it was 94.7%. Also, the IC50 in data set [1] (setting [14]) is 2.5 to 5 µg/mL (≈ 8.95 to 17.9 µM). In addition, the “giant cell formation inhibiting effect” value in data set [1] (Table 2) is 90-100%. The “survival in the acute toxicity test” value in the data set on mice is listed as “all of the tested mice survived”.

With `Cc1ccc(CCCN2C[C@H](O)[C@@H](O)[C@H](O)[C@H]2CO)cc1` [Example 10, N-[3-(4-Methylphenyl)-propyl]-1-deoxynojirimycin], in data set [1] (setting [15]), the IC50 fell in the range of 5 to 10 µg/mL (≈ 16.9 to 33.9 µM).

With `OC[C@@H]1[C@@H](O)[C@H](O)[C@@H](O)CN1CCCc1ccc(F)cc1` [Example 11, N-[3-(4-Fluorophenyl)-propyl]-1-deoxynojirimycin], the IC50 in data set [1] (setting [15]) was 5 to 10 µg/mL (≈ 16.7 to 33.4 µM).

For the compound `OC[C@@H]1[C@@H](O)[C@H](O)[C@@H](O)CN1CC=Cc1ccc(F)cc1` [Example 12, N-[3(4-Fuluorophenyl)-2-propenyl]-1-deoxynojirimycin], the “50% Inhibitory Concentration (IC₅₀)” value in data set [1] is 10 µg/mL.

With `OC[C@@H]1[C@@H](O)[C@H](O)[C@@H](O)CN1CC=Cc1cccc(F)c1` [Example 4, N-[3-(3-fluorophenyl) 2-propenyl]-1-deoxynojirimycin], the Fusion index was 1.38 in data set [1] (2.5 µg/ml, mixed culture 20 hours); 1.04 in data set [1] (5 µg/ml, mixed culture 20 hours); 0.52 in data set [1] (10 µg/ml, mixed culture 20 hours); 0.32 in data set [1] (20 µg/ml, mixed culture 20 hours); 0.01 in data set [1] (40 µg/ml, mixed culture 20 hours). In addition, the inhibition at 2.5 µg/mL in data set [1] (setting [13]) was 28%. In data set [1] (setting [13]), the inhibition at 5 µg/mL was 46%. The inhibition at 10 µg/mL in data set [1] (setting [13]) was found to be 73%. Further, in data set [1] (setting [13]), the inhibition at 20 µg/mL came out at 83%. The inhibition at 40 µg/mL in data set [1] (setting [13]) is 99%. Further, the IC50 in data set [1] (setting [14]) fell in the range of 5 to 10 µg/mL (≈ 16.8 to 33.6 µM).

Regarding `OC[C@@H]1[C@@H](O)[C@H](O)[C@@H](O)CN1CCC=Cc1ccc(Cl)cc1` [Example 8, N-[4-(4-Chlorophenyl)-3-butenyl]-1-deoxynojirimycin], in data set [1], the “50% Inhibitory Concentration (IC₅₀)” value came out at 70 µg/mL.

Turning to `OC[C@@H]1[C@@H](O)[C@H](O)[C@@H](O)CN1CCC(c1ccccc1)c1ccccc1` [Example 3, N-(3,3-diphenyl-propyl)-1-deoxynojirimycin], the Fusion index in data set [1] (3.13 µg/ml, mixed culture 5 hours) worked out at 0.26; in data set [1] (3.13 µg/ml, mixed culture 20 hours), 1.50; in data set [1] (6.25 µg/ml, mixed culture 5 hours) it was 0.54; in data set [1] (6.25 µg/ml, mixed culture 20 hours), 2.16; in data set [1] (setting [2]), 0.26; in data set [1] (setting [3]), 1.37. Moreover, the Fusion index came out at 0.50 in data set [1] (setting [4]), 0.89 in data set [1] (setting [5]), 0.32 in data set [1] (setting [6]) and 0.62 in data set [1] (setting [7]). Further, the inhibition at 3.13 µg/mL in data set [1] (setting [12]) turned out to be 51.9%; in data set [1] (setting [13]), 21.1%. Also, the inhibition at 6.25 µg/mL in data set [1] (setting [12]) and in data set [1] (setting [13]) was 0% in each case. Further, the figures for the inhibition at 12.5 µg/mL in data set [1] (setting [12]) and in data set [1] (setting [13]) were 51.9% and 27.9%, respectively. Besides, the figures for the inhibition at 25 µg/mL in data set [1] (setting [12]) and in data set [1] (setting [13]) were 7.4% and 53.2%, respectively. For the same compound, the inhibition at 50 µg/mL turned out to be 40.7% in data set [1] (setting [12]) and 67.4% in data set [1] (setting [13]).
